Source: ChEMBL document CHEMBL1156829 (Proc Natl Acad Sci U S A, 2008)

Assays:
Plasmodium falciparum [1] = experiment: NOVARTIS: Inhibition of Plasmodium falciparum 3D7 (drug-susceptible) proliferation in erythrocyte-based infection assay; type: functional, organism-based; conditions: Plasmodium falciparum, 3D7
[2] = NOVARTIS: Cytotoxicity against human hepatocellular carcinoma cell line (Huh7); type: toxicity, cell-based, Huh-7; conditions: Huh7 cells (hepatocellular carcinoma cell line)
Plasmodium falciparum [3] = experiment: NOVARTIS: Inhibition of Plasmodium falciparum W2 (drug-resistant) proliferation in erythrocyte-based infection assay; type: functional, organism-based; conditions: Plasmodium falciparum, W2; read-out: EC50

| SMILES | EC50 (Plasmodium falciparum [1]) [nM] | CC50 [2] [nM] | EC50 (Plasmodium falciparum [3]) [nM] |
| --- | --- | --- | --- |
| COc1ccc(CCN2C(=O)CC(C(=O)Nc3cccc(Cl)c3)SC2=Nc2ccccc2)cc1OC (configuration not stated) | 3820 | > 100000 | 2840 |
| COc1ccc(C2C(C(=O)Nc3cccc(C(F)(F)F)c3)c3ccccc3C(=O)N2C2CCCCC2)cc1 (configuration not stated) | 1830 | > 100000 | 1130 |
| O=C(NNC(=O)c1csnn1)c1ccc(C(F)(F)F)cc1 | 641 | > 100000 | 792 |
| O=C1NCCN1CCNS(=O)(=O)c1cc(C(F)(F)F)cc(C(F)(F)F)c1 | 1200 | > 10000 | 786 |
| COc1ccc(CNCCN2CCN(c3ccc(C)cc3)C[C@@H]2c2ccccc2)cc1 | 909 | > 10000 | 125 |
| COc1ccc(NC2=C(N3CCCCC3)C(=O)c3ccccc3C2=O)cc1 | 33.1 | 12600 | 35 |
| O=C(CSc1cn(CCNC(=O)c2ccc(F)cc2)c2ccccc12)Nc1ccccc1F | > 12500 | > 98900 | > 8090 |
| CC1(C)CC(N=c2cc(-c3ccccc3)oc3ccc(Cl)cc23)CC(C)(C)N1 | 251 | 9600 | 609 |
| COc1ccc(NC(=O)C2c3ccccc3C(=O)N(C3CCCC3)C2c2cccs2)cc1Cl (configuration not stated) | 128 | > 100000 | 107 |
| CCOc1ccc(NC(=O)c2ccc(C)o2)cc1 | 3710 | 13000 | 4430 |
| CCCCCCN(C(=O)c1ccc(CCCCC)cc1)C(CC)c1nc2ccccc2c(=O)n1-c1ccccc1OC (configuration not stated) | 1030 | > 10000 | 699 |
| Clc1ccc(-c2c[n+](Cc3ccc(Cl)c(Cl)c3)c3n2CCC3)cc1 | 446 | > 93600 | 623 |
| COc1ccc2nc(NC(N)=NC(=O)Nc3ccccc3)nc(C)c2c1 | 688 | 34800 | 896 |
| CN(Cc1cc(-c2ccc(F)cc2)ccc1O)CC(O)c1ccccc1 (configuration not stated) | 223 | > 70900 | 14.2 |
| O=C(Nc1ccc(-n2cccn2)cc1)C1CCN(CC=Cc2ccccc2)CC1 | 887 | > 99800 | 344 |
| O=C(Nc1ccc(CC2=NCCCN2)cc1)c1ccc(C(=O)Nc2ccc(CC3=NCCCN3)cc2)cc1 | 127 | > 10000 | 128 |
| CC1=C(C(=O)OC2CCCC2)C(c2ccccc2F)C2=C(CC(c3ccccc3)CC2=O)N1 (configuration not stated) | 541 | > 100000 | 259 |
| O=C(CSc1ccc2nnc(-c3cccc(F)c3)n2n1)Nc1ccc2c(c1)OCO2 | 2110 | > 100000 | 819 |
| Cc1ccc(NC(=O)c2c(I)cnn2C)cc1[N+](=O)[O-] | 192 | > 100000 | 280 |
| COC(=O)C1=C(C)N/C(=C/c2cc(C)n(-c3ccc(Cl)c(Cl)c3)c2C)C1=O | > 1020 | > 10000 | > 1250 |
| CCC(O)CN(c1ccccc1)c1ccccc1 (configuration not stated) | > 1250 | > 10000 | > 1020 |
| CCCNC(=O)CSc1nc(C)c(Cc2ccccc2)c(=O)n1C | 1280 | > 10000 | 1170 |
| CCCCC(=O)Oc1ccccc1-c1nc2ccccn2c1NC(C)(C)CC(C)(C)C | 296 | 1920 | < 7.1 |

| SMILES | EC50 (Plasmodium falciparum [1]) [nM] | CC50 [2] [nM] | EC50 (Plasmodium falciparum [3]) [nM] |
| --- | --- | --- | --- |
| Cc1cc(C)n(-c2ncc(-c3ccc([N+](=O)[O-])cc3)cn2)n1 | > 12500 | > 100000 | 3960 |
| Cc1cc(-c2cnc(N3CCCC3)nc2C2CCN(Cc3cccnc3)CC2)on1 | 190 | > 10000 | > 1090 |
| O=C(CCl)Nc1ccc(S(=O)(=O)OCC(F)(F)C(F)F)cc1 | 1730 | 17100 | 1580 |
| O=[N+]([O-])c1cccc(Cl)c1N1CCN(S(=O)(=O)Cc2ccccc2)CC1 | > 1160 | > 10000 | 1300 |
| COc1cc(OC)cc(-n2nc(C(=O)NC3CCCCC3)c3ccccc3c2=O)c1 | > 1250 | > 10000 | > 1220 |
| Cc1ccc(S(=O)(=O)Nc2ccc(C(=O)NCCC(C)C)cc2)cc1 | > 837 | > 10000 | > 1250 |
| O=C1C(Cc2ccccc2)N=C2c3ccccc3N=C(SCc3ccc(Cl)cc3)N12 (configuration not stated) | > 1250 | > 10000 | > 1050 |
| COc1ccc(C2C(C(=O)Nc3cc(C)on3)c3ccccc3C(=O)N2C2CCCCC2)cc1 (configuration not stated) | 895 | > 10000 | > 1030 |
| O=C1CC(c2ccccc2)CC2=C1C(c1cc(F)ccc1F)Nc1ccccc1N2 (configuration not stated) | 1020 | > 100000 | 310 |
| O=C1Nc2ccccc2C1=NN=Cc1ccc(-c2ccccc2[N+](=O)[O-])o1 | > 12500 | > 100000 | 6750 |
| CCOc1cccc(Nc2c3c(nc4ncnn24)CCC3)c1 | 597 | > 100000 | 374 |
| O=C1CSC(=S)N1c1cccc(Cl)c1 | 6870 | > 100000 | > 12500 |
| OC(CNC1CCCCC1)Cn1c2ccc(Br)cc2c2cc(Br)ccc21 (configuration not stated) | 451 | 6060 | 102 |
| O=C(CCCCCN1C(=O)c2cccc3cccc(c23)C1=O)NO | 563 | 3320 | 164 |
| Cc1c(C(=O)NCCN2CCCC2)cnn1-c1ncc2c(n1)-c1ccccc1SC2 | 525 | > 10000 | < 14.3 |
| CSc1cccc(NC(=O)C2C3C=CC4(O3)C2C(=O)N(CCN2CCCCC2)C4C(=O)NC2CCCC(C)C2C)c1 (configuration not stated) | > 11100 | 48100 | 1900 |
| COc1ccc(OC)c(C(C(=O)NC2CCCC2)N(C(=O)c2snc(C(N)=O)c2N)c2ccccc2OC)c1 (configuration not stated) | 2540 | > 100000 | 1790 |
| Nc1ccc(C(=O)Nc2ccc(-c3nc4ccccc4o3)cc2)cc1 | 935 | > 100000 | 893 |
| Cc1ccc(COc2ccc3c(C#N)c4ccccn4c3c2)cc1 | 2090 | > 100000 | 1370 |
| CN(C)c1ccc(/C=C/c2nc(=O)c3ccccc3o2)cc1 | 130 | > 10000 | 93.6 |
| Cc1ccc(C)c(Nc2nc(NCC3CCCO3)c3ccccc3n2)c1 (configuration not stated) | 1530 | 18600 | 1540 |
| CCCOC(=O)CSc1nc(N)c(C#N)c(-c2ccco2)c1C#N | 1890 | > 100000 | 1220 |
| CCOC(=O)C(=O)N1c2ccc(OC)cc2-c2c(ssc2=S)C1(C)C | 2.43 | > 100000 | 3.19 |

| SMILES | EC50 (Plasmodium falciparum [1]) [nM] | CC50 [2] [nM] | EC50 (Plasmodium falciparum [3]) [nM] |
| --- | --- | --- | --- |
| Cc1cc(S(=O)(=O)N2CCN(Cc3ccccc3)CC2)ccc1-n1cnnn1 | 732 | > 10000 | 1410 |
| CCc1cccc2c(C#N)cn(CC(=O)Nc3ccc(OC)cc3)c12 | 225 | > 100000 | 126 |
| c1ccc(CCCNc2ccnc3cc4ccccc4cc23)cc1 | 199 | 4140 | 209 |
| COc1ccc(C2C(C(=O)Nc3ccc(OC)c(OC)c3)CCC(=O)N2c2ccc(OC)cc2)cc1 (configuration not stated) | > 1360 | > 10000 | 2270 |
| COc1ccc(-n2nc(C(=O)NCc3ccccc3OC)c3ccccc3c2=O)cc1 | 377 | > 100000 | 390 |
| Fc1ccc(-n2cc(-c3ccccc3)[n+]3c2SCC3)cc1 | > 965 | > 10000 | > 911 |
| O=C(COC(c1cccs1)c1cccnc1Cl)N1CCN(C(=O)Nc2ccccc2)CC1 (configuration not stated) | > 12500 | > 100000 | 1420 |
| COc1ccc(CNCc2cc3c(-c4ccc(C)cc4)nn(-c4ccccc4)c3[nH]c2=O)cc1 | 133 | > 100000 | 842 |
| CCOC(=O)c1c(NC(=O)c2ccc(S(=O)(=O)N(C)c3ccccc3)cc2)sc2c1CCN(C(=O)OCC)C2 | > 10600 | > 100000 | > 3290 |
| CC1(C)N=C(N)N=C(N)N1c1ccc(Oc2ccc(Cl)cc2)c(Cl)c1 | 58 | 35100 | 628 |
| O=C(Nc1ccc(-c2nc3ccc(NC(=O)c4ccc(Br)cc4)cc3[nH]2)cc1)c1ccc(Br)cc1 | 315 | 4190 | 413 |
| CCN1CCN(c2ccc(Nc3c4ccccc4nc4ccccc34)cc2)CC1 | 50.7 | 17400 | 160 |
| Cc1cccc(NC(=O)c2ccc3ccccc3n2)n1 | > 547 | > 10000 | > 1090 |
| CCCN1CCc2c(sc3nc(SC)n(-c4ccccc4)c(=O)c23)C1 | 947 | > 100000 | 627 |
| CN(C)[C@@H]1CCN(Cc2cccc(Cl)c2)C[C@@H]1CCC(=O)NCCCN1CCOCC1 | 593 | > 2940 | < 15.4 |
| CCc1ccc2[nH]c(=O)c(CN(CCN(CC)CC)C(=S)NCCCN(C)C)cc2c1 | 2270 | 38200 | 1530 |
| CCCCNCC(O)(c1ccc(Cl)cc1)c1ccc(Cl)cc1 | 720 | 38500 | 99.7 |
| CN1CCN(c2cc(-c3ccncc3)nc(-c3cccnc3)n2)CC1 | 511 | > 10000 | 494 |
| COC(=O)c1cn2c(=O)c3ccccc3nc2c2ccccc12 | > 385 | > 10000 | > 1250 |
| COc1ccc(C2CC(=O)C3=C(C2)NC(C)=C(C(=O)OC2CCCC2)C3c2ccccc2F)cc1OC (configuration not stated) | 40.4 | 14900 | 12 |
| CC(=O)Nc1cccc(N(C(=O)C2COc3ccccc3O2)C(C(=O)NC2CCCCC2)c2ccc(O)cc2)c1 (configuration not stated) | > 1250 | > 10000 | > 1100 |
| CCCn1cc(SCC(=O)NCc2ccco2)c2ccccc21 | 1020 | > 100000 | 673 |
| C[n+]1c2n(c3ccccc31)N=C(c1ccccc1)CS2 | 454 | 45100 | 347 |
